According to patent US20160108049A1 (TAKEDA Gmbh, priority 2011, published 2016):

What was measured:
[1] = biological target: T1, PDE4B1 (Homo sapiens, UniProt Q07343); assay: Inhibition of PDE4 activity (PDE4B1, SPA assay); assay type: biochemical; details: recombinant PDE4B1, 0.5 μM cAMP; read-out: PDE4B1 Inhibitory values measured as -logIC50 (converted)
T1 construct: made in house; host or cells: SF21 insect cells (baculovirus; virus made in SF9 cells, pCR-Bac vector)
Procedure, shortened: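 Read-out is SPA yttrium silicate bead scintillation after IBMX-containing beads stop the reaction. Insect-cell (SF21) lysate enzyme hydrolysed 0.5 μM [3H]cAMP at pH 7.4 with 5 mM Mg2+ for 15 min after a 5 min 37 °C preincubation; IC50 fitted by non-linear regression.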

[2] = biological target: T2, human PDE5 (Homo sapiens, UniProt O76074); assay: Inhibition of PDE5 activity (platelet lysate, SPA assay); assay type: biochemical; details: 0.5 μM cGMP, read-out: PDE5 Inhibitory values measured as -logIC50 (converted)
T2 construct: from tissue; host or cells: human platelets from fresh donor blood (platelet lysate)
Procedure, shortened: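 SPA readout of [3H]cGMP hydrolysis (0.5 μM, 15 min, 37 °C after 5 min preincubation), stopped with yttrium silicate beads containing IBMX. Enzyme was lysate from human platelets, used at 10–20% substrate turnover, with PDE3 (motapizone 1 μM) and PDE2 (10 nM) blockers present. IC50 values fitted non-linearly from concentration-effect curves.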

T1 sequence (Q07343 whole entry): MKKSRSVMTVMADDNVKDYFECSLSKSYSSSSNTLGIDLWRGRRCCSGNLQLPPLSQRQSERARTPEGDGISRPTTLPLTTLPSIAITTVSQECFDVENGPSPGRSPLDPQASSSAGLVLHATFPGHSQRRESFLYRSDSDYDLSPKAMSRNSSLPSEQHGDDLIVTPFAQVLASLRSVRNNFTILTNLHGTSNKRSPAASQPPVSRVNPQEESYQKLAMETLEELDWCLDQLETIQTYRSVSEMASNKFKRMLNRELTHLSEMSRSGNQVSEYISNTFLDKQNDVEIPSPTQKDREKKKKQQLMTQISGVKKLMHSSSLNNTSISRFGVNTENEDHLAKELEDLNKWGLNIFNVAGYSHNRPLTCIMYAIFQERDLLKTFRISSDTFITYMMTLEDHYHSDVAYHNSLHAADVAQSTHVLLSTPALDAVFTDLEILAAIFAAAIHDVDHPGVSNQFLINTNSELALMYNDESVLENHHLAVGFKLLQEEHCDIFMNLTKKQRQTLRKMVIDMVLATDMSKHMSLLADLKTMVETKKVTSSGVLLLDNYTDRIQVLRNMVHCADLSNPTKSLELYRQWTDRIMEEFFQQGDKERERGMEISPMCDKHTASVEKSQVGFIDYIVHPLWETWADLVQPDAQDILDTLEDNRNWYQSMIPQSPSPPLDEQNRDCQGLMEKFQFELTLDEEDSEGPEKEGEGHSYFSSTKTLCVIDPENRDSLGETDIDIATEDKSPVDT

| IC50 [1] | IC50 [2] | SMILES |
| --- | --- | --- |
| < 1 nM | 1 to 10 nM | COc1ccc(C2=NN(C3CCN(C(=O)[C@H](CO)NC(=O)c4c[nH]c5c(-c6c(OCC7CC7)ccc7c6OCO7)ncnc45)CC3)C(=O)[C@@H]3CCCC[C@H]23)cc1OC [Example 60, 4-[5-(cyclopropylmethoxy)-1,3-benzodioxol-4-yl]-N-[(2S)-1-{4-[(4aS,8aR)-4-(3,4-dimethoxyphenyl)-1-oxo-4a,5,6,7,8,8a-hexahydrophthalazin-2(1H)-yl]piperidin-1-yl}-3-hydroxy-1-oxopropan-2-yl]-5H-pyrrolo[3,2-d]pyrimidine-7-carboxamide] |
| < 1 nM | 1 to 10 nM | COc1ccc(C2=NN(C3CCN(C(=O)[C@H](C)NC(=O)c4c[nH]c5c(-c6c(OCC7CC7)ccc7c6OCO7)ncnc45)CC3)C(=O)[C@@H]3CCCC[C@H]23)cc1OC [Example 61, 4-[5-(cyclopropylmethoxy)-1,3-benzodioxol-4-yl]-N-[(2S)-1-{4-[(4aS,8aR)-4-(3,4-dimethoxyphenyl)-1-oxo-4a,5,6,7,8,8a-hexahydrophthalazin-2(1H)-yl]piperidin-1-yl}-1-oxopropan-2-yl]-5H-pyrrolo[3,2-d]pyrimidine-7-carboxamide] |
| < 1 nM | 1 to 10 nM | COc1ccc(C2=NN(C3CCN(C(=O)[C@@H](C)NC(=O)c4c[nH]c5c(-c6c(OCC7CC7)ccc7c6OCO7)ncnc45)CC3)C(=O)[C@@H]3CCCC[C@H]23)cc1OC [Example 62, 4-[5-(cyclopropylmethoxy)-1,3-benzodioxol-4-yl]-N-[(2R)-1-{4-[(4aS,8aR)-4-(3,4-dimethoxyphenyl)-1-oxo-4a,5,6,7,8,8a-hexahydrophthalazin-2(1H)-yl]piperidin-1-yl}-1-oxopropan-2-yl]-5H-pyrrolo[3,2-d]pyrimidine-7-carboxamide] |
| < 1 nM | < 1 nM | COc1ccc(C2=NN(C3CCN(C(=O)[C@@H](NC(=O)c4c[nH]c5c(-c6c(OCC7CC7)ccc7c6OCO7)ncnc45)[C@@H](C)O)CC3)C(=O)[C@@H]3CCCC[C@H]23)cc1OC [Example 63, 4-[5-(cyclopropylmethoxy)-1,3-benzodioxol-4-yl]-N-[(2S,3R)-1-{4-[(4aS,8aR)-4-(3,4-dimethoxyphenyl)-1-oxo-4a,5,6,7,8,8a-hexahydrophthalazin-2(1H)-yl]piperidin-1-yl}-3-hydroxy-1-oxobutan-2-yl]-5H-pyrrolo[3,2-d]pyrimidine-7-carboxamide] |
| < 1 nM | < 1 nM | CC[C@H](NC(=O)c1c(C)[nH]c2c(-c3c(OCC4CC4)ccc4c3OCO4)ncnc12)C(=O)N1CCC(N2N=C(c3ccc(OC)c(OC)c3)[C@H]3CCCC[C@H]3C2=O)CC1 [Example 64, 4-[5-(cyclopropylmethoxy)-1,3-benzodioxol-4-yl]-N-[(2S)-1-{4-[(4aS,8aR)-4-(3,4-dimethoxyphenyl)-1-oxo-4a,5,6,7,8,8a-hexahydrophthalazin-2(1H)-yl]piperidin-1-yl}-1-oxobutan-2-yl]-6-methyl-5H-pyrrolo[3,2-d]pyrimidine-7-carboxamide] |
| < 1 nM | < 1 nM | COc1ccc(C2=NN(C3CCN(C(=O)[C@@H](CCc4ccccc4)NC(=O)c4c[nH]c5c(-c6c(OCC7CC7)ccc7c6OCO7)ncnc45)CC3)C(=O)[C@@H]3CCCC[C@H]23)cc1OC [Example 65, 4-[5-(cyclopropylmethoxy)-1,3-benzodioxol-4-yl]-N-[(2R)-1-{4-[(4aS,8aR)-4-(3,4-dimethoxyphenyl)-1-oxo-4a,5,6,7,8,8a-hexahydrophthalazin-2(1H)-yl]piperidin-1-yl}-1-oxo-4-phenylbutan-2-yl]-5H-pyrrolo[3,2-d]pyrimidine-7-carboxamide] |
| < 1 nM | < 1 nM | COc1ccc(C2=NN(C3CCN(C(=O)[C@@H](Cc4ccccc4)NC(=O)c4c(C)[nH]c5c(-c6c(OCC7CC7)ccc7c6OCO7)ncnc45)CC3)C(=O)C(C)(C)C2)cc1OC [Example 66, 4-[5-(cyclopropylmethoxy)-1,3-benzodioxol-4-yl]-N-[(2R)-1-{4-[3-(3,4-dimethoxyphenyl)-5,5-dimethyl-6-oxo-5,6-dihydropyridazin-1(4H)-yl]piperidin-1-yl}-1-oxo-3-phenylpropan-2-yl]-6-methyl-5H-pyrrolo[3,2-d]pyrimidine-7-carboxamide] |
| < 1 nM | 1 to 10 nM | COc1ccc(C2=NN(C3CCN(C(=O)[C@@H](Cc4ccccc4)NC(=O)c4c[nH]c5c(-c6c(OCC7CC7)ccc7c6OCO7)ncnc45)CC3)C(=O)C(C)(C)C2)cc1OC [Example 67, 4-[5-(cyclopropylmethoxy)-1,3-benzodioxol-4-yl]-N-[(2R)-1-{4-[3-(3,4-dimethoxyphenyl)-5,5-dimethyl-6-oxo-5,6-dihydropyridazin-1(4H)-yl]piperidin-1-yl}-1-oxo-3-phenylpropan-2-yl]-5H-pyrrolo[3,2-d]pyrimidine-7-carboxamide] |
| 1 to 10 nM | 1 to 10 nM | COc1cc(OCC2CC2)c(-c2ncnc3c(C(=O)N[C@H](Cc4ccccc4)C(=O)N4CCC(N5N=C(c6ccc(OC)c(OC)c6)CC(C)(C)C5=O)CC4)c[nH]c23)cc1F [Example 68, 4-[2-(cyclopropylmethoxy)-5-fluoro-4-methoxyphenyl]-N-[(2R)-1-{4-[3-(3,4-dimethoxyphenyl)-5,5-dimethyl-6-oxo-5,6-dihydropyridazin-1(4H)-yl]piperidin-1-yl}-1-oxo-3-phenylpropan-2-yl]-5H-pyrrolo[3,2-d]pyrimidine-7-carboxamide] |
| 1 to 10 nM | 1 to 10 nM | COc1cc(OCC2CC2)c(-c2ncnc3c(C(=O)N[C@H](Cc4ccccc4)C(=O)N4CCC(N5N=C(c6ccc(OC)c(OC)c6)CC(C)(C)C5=O)CC4)c(C)[nH]c23)cc1F [Example 69, 4-[2-(cyclopropylmethoxy)-5-fluoro-4-methoxyphenyl]-N-[(2R)-1-{4-[3-(3,4-dimethoxyphenyl)-5,5-dimethyl-6-oxo-5,6-dihydropyridazin-1(4H)-yl]piperidin-1-yl}-1-oxo-3-phenylpropan-2-yl]-6-methyl-5H-pyrrolo[3,2-d]pyrimidine-7-carboxamide] |
| < 1 nM | 1 to 10 nM | CC[C@H](C)[C@H](NC(=O)c1c[nH]c2c(-c3c(OCC4CC4)ccc4c3OCO4)ncnc12)C(=O)N1CCC(N2N=C(c3ccc(OC)c(OC)c3)[C@H]3CCCC[C@H]3C2=O)CC1 [Example 71, 4-[5-(cyclopropylmethoxy)-1,3-benzodioxol-4-yl]-N-[(2S,3S)-1-{4-[(4aS,8aR)-4-(3,4-dimethoxyphenyl)-1-oxo-4a,5,6,7,8,8a-hexahydrophthalazin-2(1H)-yl]piperidin-1-yl}-3-methyl-1-oxopentan-2-yl]-5H-pyrrolo[3,2-d]pyrimidine-7-carboxamide] |
| < 1 nM | 1 to 10 nM | COc1ccc(C2=NN(C3CCN(C(=O)[C@H](NC(=O)c4c[nH]c5c(-c6c(OCC7CC7)ccc7c6OCO7)ncnc45)C4CCCCC4)CC3)C(=O)[C@@H]3CCCC[C@H]23)cc1OC [Example 72, N-[(1R)-1-cyclohexyl-2-{4-[(4aS,8aR)-4-(3,4-dimethoxyphenyl)-1-oxo-4a,5,6,7,8,8a-hexahydrophthalazin-2(1H)-yl]piperidin-1-yl}-2-oxoethyl]-4-[5-(cyclopropylmethoxy)-1,3-benzodioxol-4-yl]-5H-pyrrolo[3,2-d]pyrimidine-7-carboxamide] |
| 1 to 10 nM | 1 to 10 nM | COc1ccc(C2=NN(C3CCN(C(=O)[C@@H](NC(=O)c4c[nH]c5c(-c6c(OCC7CC7)ccc7c6OCO7)ncnc45)C4CCCCC4)CC3)C(=O)[C@@H]3CCCC[C@H]23)cc1OC [Example 73, N-[(1S)-1-cyclohexyl-2-{4-[(4aS,8aR)-4-(3,4-dimethoxyphenyl)-1-oxo-4a,5,6,7,8,8a-hexahydrophthalazin-2(1H)-yl]piperidin-1-yl}-2-oxoethyl]-4-[5-(cyclopropylmethoxy)-1,3-benzodioxol-4-yl]-5H-pyrrolo[3,2-d]pyrimidine-7-carboxamide] |
| < 1 nM | < 1 nM | COc1ccc(C2=NN(C3CCN(C(=O)[C@H](Cc4cccs4)NC(=O)c4c(C)[nH]c5c(-c6c(OCC7CC7)ccc7c6OCO7)ncnc45)CC3)C(=O)[C@@H]3CCCC[C@H]23)cc1OC [Example 74, 4-[5-(cyclopropylmethoxy)-1,3-benzodioxol-4-yl]-N-[(2S)-1-{4-[(4aS,8aR)-4-(3,4-dimethoxyphenyl)-1-oxo-4a,5,6,7,8,8a-hexahydrophthalazin-2(1H)-yl]piperidin-1-yl}-1-oxo-3-(thiophen-2-yl)propan-2-yl]-6-methyl-5H-pyrrolo[3,2-d]pyrimidine-7-carboxamide] |
| < 1 nM | 1 to 10 nM | COc1ccc(C2=NN(C3CCN(C(=O)[C@H](Cc4cccs4)NC(=O)c4c[nH]c5c(-c6c(OCC7CC7)ccc7c6OCO7)ncnc45)CC3)C(=O)[C@@H]3CCCC[C@H]23)cc1OC [Example 75, 4-[5-(cyclopropylmethoxy)-1,3-benzodioxol-4-yl]-N-[(2S)-1-{4-[(4aS,8aR)-4-(3,4-dimethoxyphenyl)-1-oxo-4a,5,6,7,8,8a-hexahydrophthalazin-2(1H)-yl]piperidin-1-yl}-1-oxo-3-(thiophen-2-yl)propan-2-yl]-5H-pyrrolo[3,2-d]pyrimidine-7-carboxamide] |
